US20020155172A1, “Methods and compounds for decreasing cell toxicity or death” (priority 2000, published 2002)

Tests used:
[1] = tested on: Q79-Q79 interaction (Q79-ECFP/EYFP-Q79); experiment: FRET-Q79 assay; assay type: biochemical; details: aggregates treated with 100 Congo red; 488 nm excitation, 527 nm emission
Source text: To rule out the possibility that Congo red merely disrupts large polyglutamine aggregates without affecting oligomeric polyglutamine interaction that may be invisible to fluorescence microscopy, we designed a FRET-Q79 assay. In this assay, the expression constructs EYFP-Q79 (enhanced yellow fluorescent protein fused to a polypeptide containing 79 polyglutamines) and Q79-ECFP (enhanced cyan fluorescent protein fused to a polypeptide containing 79 polyglutamines) were co-transfected into HeLa cells. The EYFP-HAQ79 was made by ligation of a SacI/Notl digested insert from HA-Q79 CMX (Sanchez et al., 1999, supra) into the plasmid CFP-C1, described by Sanchez et al. (supra) after Sac1 digestion and blunting. […]
The lysates were passed through a needle to ensure release of polyglutamine inclusions from the nuclei. […] The fluorescence resonance energy transfer (FRET) was determined from polyglutamine oligomers formed in Q79-ECFP/EYFP-Q79 expressing cells upon addition of PBS or Congo red. Specifically, the interaction of the tagged Q79 polypeptides was detected by immunofluorescence at 488 nm excitation and 527 nm emission for FRET using a Wallach plate reader, and the ratio of the immunofluorescence was determined. Immunofluorescence levels were also detected for each ECFP and EYFP independent of the effect of Congo red on fluorescence emission wavelengths.

[2] = tested on: Q79-expressing HeLa cells; experiment: Turnover of S35-labeled expanded polyglutamine repeats; assay type: cell-based
Protocol: FIG. 8A is a set of scanned autoradiograms showing the effect of Congo red on expanded polyglutamine repeat turn-over, as assessed by relative levels of S^35 labeled polyQ (Q79) protein, with or without Congo red treatment. Q79-HA expressing cells were metabolically labeled with S^35 methionine for one hour. Cells were harvested one and 24 hours after labeling. PolyQ protein was immunoprecipitated with an anti-HA antibody, and the proteins were separated by electrophoresis before blotting.
We next determined whether inhibition and disruption of Q79 oligomers changed its turnover kinetics by measuring pulse-S^35-labeled polyglutamine levels in the presence or absence of Congo red.

[3] = tested on: FADDdn, caspase-8dn, and HD exon-1 (Q25)-GFP; experiment: Recruitment of polyglutamine interacting proteins; assay type: cell-based; details: HeLa co-transfected with Q-79
Source text: FIG. 7A is a graph of the effect of Congo red or ZVAD on the recruitment of caspase-8, a death domain, or proteins containing short polyglutamine repeats by expanded polyglutamine oligomerization in cells transfected with a Q79-GFP expression construct and a caspase-8 (GFP-casp 8DN), death domain (GFP-FADD DN), or short polyglutamine (HD-1 (Q25)-GFP) protein recruitment.
We co-transfected HeLa cells with Q-79 and one of the following expression constructs, GFP-FADDdn (GFP fused to the death domain of FADD adapter protein, that generates a dominant negative FADD polypeptide (missing the first 80 amino acids of the full length protein)), GFP-caspase-8dn (GFP-tagged C360S mutant of caspase-8, generating a dominant negative caspase-8 polypeptide; Sanchez et al., supra), or GFP-exon-1 (Q25) (a GFP fusion construct containing the first exon of human huntingtin protein, encoding a 25 polyglutamine stretch; Kazantsev et al., Proc. Natl. Acad. Sci. USA 96:[…], 1999), in the presence of ZVAD or of Congo red (FIGS. 7A and B).

[4] = tested on: R62 mice; experiment: Rotarod motor performance, second study; assay type: in vivo; details: 10 rpm, maximum 210 seconds
Source text: FIG. 10F is a graph of the effect of PBS (vehicle; delivered intraperitoneally (IP)) or Congo red, infused intraperitoneally (IP), by intracerebroventricular cannula (ICV) implanted into the predetermined coordinates on the left ventricle, or by both routes, on motor performance, as assessed by latency to fall measurements using a rotorod.
In addition, the ability of Congo red to inhibit the formation as well as to disrupt preformed polyglutamine oligomers allowed us to examine the role of polyglutamine aggregates in neuronal dysfunction and degeneration characteristic of polyglutamine expansion diseases. In these studies, we used the animal model of Huntington's disease (R62), which expresses the truncated form of huntingtin with 139 CAG repeats Mangiarini et al. (supra). We took advantage of our finding that in addition to inhibiting polyglutamine oligomerization, Congo red also disrupts pre-formed oligomers, thus allowing assessment of the impact of Congo red on disease progression after formation of polyglutamine aggregates and the onset of symptoms. […]
The initial abnormal neurological signs of R62 mice include dyskinesia of the hindlimbs when mice were suspended by the tail, and irregular gait. […] The effect of Congo red on motor performance in R62 mice was also assessed by rotarod studies. […]

## Nc1c(/N=N/c2ccc(-c3ccc(/N=N/c4cc(S(=O)(=O)O)c5ccccc5c4N)cc3)cc2)cc(S(=O)(=O)O)c2ccccc12 [Congo red, diphenyldiazo-bis-alpha-napthylaminesulfonate]
[1]
  FRET ratio: significantly reduced
[2]; Western blot, compared to negative controls
  steady state levels of HA-Q79: only slightly reduced steady state levels
[2]; after chase for 24 hours, versus control cells
  level of S35-labeled polyglutamine: more than two fold lower
[2]; one hour after chase
  expression (synthesis) of expanded polyglutamine: did not prevent the expression of expanded polyglutamine
[2]; versus control cells
  turnover rate of S35-labeled Q79: at least a two fold higher turnover rate
[3]
  recruitment of FADDdn, caspase-8dn, and HD exon-1 (Q25)-GFP: decreased the concurrent recruitment of FADDdn, caspase-8dn, and HD exon-1 (Q25)-GFP
[4]
  motor performance on rotarod: preserved
